Measured values reported in ChEMBL document CHEMBL4138123, “Design, synthesis and biological evaluation of novel pyrazolochalcones as potential modulators of PI3K/Akt/mTOR pathway and inducers of apoptosis in breast cancer cells” (Eur J Med Chem, 2017).

Tests used:
Format in all cases: functional
[1] = tested on: UACC-257; assay: Cytotoxicity against human UACC257 cells assessed as cell growth at 100 uM after 48 hrs by sulforhodamine B assay relative to control; details: UACC-257, 48 h, read-out: Activity
[2] = tested on: HCC 2998; assay: Cytotoxicity against human HCC2998 cells assessed as cell growth at 1 uM after 48 hrs by sulforhodamine B assay relative to control; details: HCC 2998, 48 h, read-out: Activity
[3] = tested on: A549; assay: Cytotoxicity against human A549/ATCC cells assessed as cell growth at 100 uM after 48 hrs by sulforhodamine B assay relative to control; details: A549, 48 h, read-out: Activity
[4] = tested on: SK-MEL-5; assay: Cytotoxicity against human SK-MEL-5 cells assessed as cell growth at 100 uM after 48 hrs by sulforhodamine B assay relative to control; details: SK-MEL-5, 48 h, read-out: Activity
[5] = tested on: COLO 205; assay: Cytotoxicity against human COLO205 cells assessed as cell growth at 10 uM after 48 hrs by sulforhodamine B assay relative to control; details: COLO 205, 48 h, read-out: Activity
[6] = tested on: T47D; assay: Cytotoxicity against human T47D cells assessed as cell growth at 100 uM after 48 hrs by sulforhodamine B assay relative to control; details: read-out: Activity
[7] = tested on: BT-549; assay: Cytotoxicity against human BT549 cells assessed as cell growth at 1 uM after 48 hrs by sulforhodamine B assay relative to control; details: BT-549, 48 h, read-out: Activity
[8] = tested on: LOX IMVI; assay: Cytotoxicity against human LOXIMVI cells assessed as growth inhibition after 48 hrs by sulforhodamine B assay
[9] = tested on: MCF7; assay: Cytotoxicity against human MCF7 cells assessed as cell growth at 100 uM after 48 hrs by sulforhodamine B assay relative to control; details: MCF7, 48 h, read-out: Activity
[10] = tested on: IGROV-1; assay: Cytotoxicity against human IGROV1 cells assessed as growth inhibition after 48 hrs by sulforhodamine B assay; details: IGROV-1, 48 h
[11] = tested on: A498; assay: Cytotoxicity against human A498 cells assessed as cell growth at 10 uM after 48 hrs by sulforhodamine B assay relative to control; details: A498, 48 h, read-out: Activity
[12] = tested on: NCI-H522; assay: Cytotoxicity against human NCI-H522 cells assessed as cell growth at 10 uM after 48 hrs by sulforhodamine B assay relative to control; details: NCI-H522, 48 h, read-out: Activity
[13] = tested on: NCI-H226; assay: Cytotoxicity against human NCI-H226 cells assessed as cell growth at 0.1 uM after 48 hrs by sulforhodamine B assay relative to control; details: NCI-H226, 48 h, read-out: Activity
[14] = tested on: COLO 205; assay: Cytotoxicity against human COLO205 cells assessed as cell growth at 1 uM after 48 hrs by sulforhodamine B assay relative to control; details: COLO 205, 48 h, read-out: Activity
[15] = tested on: SW-620; assay: Cytotoxicity against human SW620 cells assessed as cell growth at 10 uM after 48 hrs by sulforhodamine B assay relative to control; details: SW-620, 48 h, read-out: Activity
[16] = tested on: SNB-19; assay: Cytotoxicity against human SNB19 cells assessed as cell growth at 0.01 uM after 48 hrs by sulforhodamine B assay relative to control; details: SNB-19, 48 h, read-out: Activity
[17] = tested on: HOP-62; assay: Cytotoxicity against human HOP62 cells assessed as cell growth at 10 uM after 48 hrs by sulforhodamine B assay relative to control; details: HOP-62, 48 h, read-out: Activity
[18] = tested on: RPMI-8226; assay: Cytotoxicity against human RPMI8226 cells assessed as cell growth at 0.01 uM after 48 hrs by sulforhodamine B assay relative to control; details: RPMI-8226, 48 h, read-out: Activity
[19] = tested on: UO-31; assay: Cytotoxicity against human UO31 cells assessed as cell growth at 10 uM after 48 hrs by sulforhodamine B assay relative to control; details: UO-31, 48 h, read-out: Activity
[20] = tested on: HCT-15; assay: Cytotoxicity against human HCT15 cells assessed as cell growth at 0.1 uM after 48 hrs by sulforhodamine B assay relative to control; details: HCT-15, 48 h, read-out: Activity
[21] = tested on: SN12C; assay: Cytotoxicity against human SN12C cells assessed as cell growth at 1 uM after 48 hrs by sulforhodamine B assay relative to control; details: read-out: Activity
[22] = tested on: SN12C; assay: Cytotoxicity against human SN12C cells assessed as cell growth at 10 uM after 48 hrs by sulforhodamine B assay relative to control; details: read-out: Activity
[23] = tested on: SW-620; assay: Cytotoxicity against human SW620 cells assessed as cell growth at 0.1 uM after 48 hrs by sulforhodamine B assay relative to control; details: SW-620, 48 h, read-out: Activity
[24] = tested on: U-251; assay: Cytotoxicity against human U251 cells assessed as cell growth at 10 uM after 48 hrs by sulforhodamine B assay relative to control; details: U-251, 48 h, read-out: Activity
[25] = tested on: SK-MEL-5; assay: Cytotoxicity against human SK-MEL-5 cells assessed as cell growth at 0.01 uM after 48 hrs by sulforhodamine B assay relative to control; details: SK-MEL-5, 48 h, read-out: Activity
[26] = tested on: NCI-H522; assay: Cytotoxicity against human NCI-H522 cells assessed as cell growth at 1 uM after 48 hrs by sulforhodamine B assay relative to control; details: NCI-H522, 48 h, read-out: Activity
[27] = tested on: SK-OV-3; assay: Cytotoxicity against human SKOV3 cells assessed as cell growth at 0.01 uM after 48 hrs by sulforhodamine B assay relative to control; details: SK-OV-3, 48 h, read-out: Activity
[28] = tested on: NCI-H460; assay: Cytotoxicity against human NCI-H460 cells assessed as cell growth at 1 uM after 48 hrs by sulforhodamine B assay relative to control; details: NCI-H460, 48 h, read-out: Activity
[29] = tested on: MDA-MB-435; assay: Cytotoxicity against human MDA-MB-435 cells assessed as cell growth at 0.01 uM after 48 hrs by sulforhodamine B assay relative to control; details: MDA-MB-435, 48 h, read-out: Activity
[30] = tested on: Hs-578T; assay: Cytotoxicity against human Hs 578T cells assessed as cell growth at 100 uM after 48 hrs by sulforhodamine B assay relative to control; details: read-out: Activity
[31] = tested on: MDA-MB-435; assay: Cytotoxicity against human MDA-MB-435 cells assessed as growth inhibition after 48 hrs by sulforhodamine B assay; details: MDA-MB-435, 48 h
[32] = tested on: NCI-H322M; assay: Cytotoxicity against human NCI-H322M cells assessed as cell growth at 0.1 uM after 48 hrs by sulforhodamine B assay relative to control; details: read-out: Activity
[33] = tested on: A498; assay: Cytotoxicity against human A498 cells assessed as cell growth at 0.1 uM after 48 hrs by sulforhodamine B assay relative to control; details: A498, 48 h, read-out: Activity
[34] = tested on: UACC-257; assay: Cytotoxicity against human UACC257 cells assessed as cell growth at 1 uM after 48 hrs by sulforhodamine B assay relative to control; details: UACC-257, 48 h, read-out: Activity
[35] = tested on: ACHN; assay: Cytotoxicity against human ACHN cells assessed as cell growth at 0.1 uM after 48 hrs by sulforhodamine B assay relative to control; details: read-out: Activity
[36] = tested on: DU-145; assay: Cytotoxicity against human DU145 cells assessed as cell growth at 0.01 uM after 48 hrs by sulforhodamine B assay relative to control; details: DU-145, 48 h, read-out: Activity

Row | Structure (SMILES) | growth at 100 µM [1] [%] | growth at 1 µM [2] [%] | growth at 100 µM [3] [%] | growth at 100 µM [4] [%] | growth at 10 µM [5] [%] | growth at 100 µM [6] [%] | growth at 1 µM [7] [%] | LC50 [8] [µM] | TGI [8] [µM] | growth at 100 µM [9] [%] | LC50 [10] [µM] | TGI [10] [µM] | growth at 10 µM [11] [%] | growth at 10 µM [12] [%] | growth at 0.1 µM [13] [%] | growth at 1 µM [14] [%] | growth at 10 µM [15] [%] | growth at 0.01 µM [16] [%] | growth at 10 µM [17] [%] | growth at 0.01 µM [18] [%] | further results
1 | COc1cc(C(=O)/C=C/c2cc(-c3cc(OC)c(OC)c(OC)c3)n[nH]2)cc(OC)c1OC | -99 | 99 | -66 | -98 | -100 | -92 | 85 | 5.57 | 2.91 | -72 | 33.1 | 10.2 | -64 | -97 | 93 | 98 | -89 | 92 | -91 | 97 | growth at 10 µM [19]: -95%; growth at 0.1 µM [20]: 94%; growth at 1 µM [21]: 78%; growth at 10 µM [22]: -86%; growth at 0.1 µM [23]: 97%; growth at 10 µM [24]: -94%; growth at 0.01 µM [25]: 96%; growth at 1 µM [26]: 29%; growth at 0.01 µM [27]: 100%; growth at 1 µM [28]: 89%; growth at 0.01 µM [29]: 99%; growth at 100 µM [30]: -4%; LC50 [31]: 5.82 µM; TGI [31]: 2.95 µM; growth at 0.1 µM [32]: 97%; growth at 0.1 µM [33]: 90%; growth at 1 µM [34]: 85%; growth at 0.1 µM [35]: 100%
2 | COc1ccc(C(=O)/C=C/c2cc(-c3ccc4c(c3)OCO4)n[nH]2)cc1OC | -81 | 104 | -14 | -95 | 14 | -31 | 95 | 8.46 | 4.08 | -48 | 68 | 9.2 | -43 | -45 | 93 | 101 | -43 | 91 | -29 | 99 | growth at 0.1 µM [20]: 95%; growth at 1 µM [21]: 91%; growth at 10 µM [22]: 11%; growth at 0.1 µM [23]: 95%; growth at 10 µM [24]: -25%; growth at 0.01 µM [36]: 101%; growth at 0.01 µM [25]: 96%; growth at 1 µM [26]: 84%; growth at 0.01 µM [27]: 99%; growth at 1 µM [28]: 87%; growth at 0.01 µM [29]: 98%; growth at 100 µM [30]: -5%; LC50 [31]: 99 µM; TGI [31]: 10 µM; growth at 0.1 µM [32]: 88%; growth at 0.1 µM [33]: 80%; growth at 1 µM [34]: 93%; growth at 0.1 µM [35]: 100%
3 | COc1ccc(-c2cc(/C=C/C(=O)c3ccc4c(c3)OCO4)[nH]n2)cc1OC |  |  |  |  |  |  |  |  |  |  |  |  |  |  |  |  |  |  |  |  | GI50 [8]: 1.29 µM; GI50 [10]: 3.13 µM; GI50 [31]: 1.72 µM
